Results reported in patent US11939314B2, “Quinolin-2-one derivatives” (MERCK PATENT GMBH, priority 2016, dated 2024).
Structures can show the parent of a compound that is named as a salt.

Columns and labels:
PDGFRalpha(V561D) = target: T1, PDGFRalpha(V561D) (Homo sapiens, UniProt P16234, V561D); test: PDGFRalpha(V561D) assay; format: biochemical; settings: recombinant human PDGFRalpha aa 550-end, 200 μM ATP, 1.4E-06 means 1.4×10^−6, read-out: Inhibition (IC50) of PDGFRα (V561D)
T1 construct: recombinant human PDGFRalpha, amino acids 550end containing the V561 D mutation; 6His (N)
Procedure, shortened: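 Radiometric filter-binding assay: substrate phosphorylation by recombinant N-His-tagged human PDGFRα 550-end V561D was quenched with 3% phosphoric acid after 40 min at room temperature, then counted.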

c-Kit(V654A) = target: T2, c-Kit(V654A) (Homo sapiens, UniProt P10721, V654A); test: c-Kit(V654A) assay; format: biochemical; settings: recombinant human c-Kit aa 544-end, 200 μM ATP, 1.4E-06 means 1.4×10^−6, read-out: Inhibition (IC50) of c-KIT (V654A)
T2 construct: amino acids 544-end containing the V654A mutation; GST (N)
Procedure, shortened: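 Radiometric filter-binding read-out: substrate 33P incorporation counted by scintillation after P30 filtermat washes in 75 mM phosphoric acid and methanol. Enzyme: N-GST recombinant human c-Kit aa 544-end carrying V654A.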

T2 sequence (P10721 544-976 V654A): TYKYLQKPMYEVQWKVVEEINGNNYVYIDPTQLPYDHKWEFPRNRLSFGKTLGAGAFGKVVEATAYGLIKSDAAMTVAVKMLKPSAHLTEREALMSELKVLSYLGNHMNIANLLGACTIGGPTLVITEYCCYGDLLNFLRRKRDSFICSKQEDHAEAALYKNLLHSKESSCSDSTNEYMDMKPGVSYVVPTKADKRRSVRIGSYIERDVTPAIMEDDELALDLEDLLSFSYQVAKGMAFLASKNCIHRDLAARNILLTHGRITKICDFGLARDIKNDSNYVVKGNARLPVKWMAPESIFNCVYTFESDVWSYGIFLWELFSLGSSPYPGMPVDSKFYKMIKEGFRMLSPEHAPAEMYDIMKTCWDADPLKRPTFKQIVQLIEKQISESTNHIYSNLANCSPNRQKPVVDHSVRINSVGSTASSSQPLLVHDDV
T1 sequence (P16234 550-1089 V561D): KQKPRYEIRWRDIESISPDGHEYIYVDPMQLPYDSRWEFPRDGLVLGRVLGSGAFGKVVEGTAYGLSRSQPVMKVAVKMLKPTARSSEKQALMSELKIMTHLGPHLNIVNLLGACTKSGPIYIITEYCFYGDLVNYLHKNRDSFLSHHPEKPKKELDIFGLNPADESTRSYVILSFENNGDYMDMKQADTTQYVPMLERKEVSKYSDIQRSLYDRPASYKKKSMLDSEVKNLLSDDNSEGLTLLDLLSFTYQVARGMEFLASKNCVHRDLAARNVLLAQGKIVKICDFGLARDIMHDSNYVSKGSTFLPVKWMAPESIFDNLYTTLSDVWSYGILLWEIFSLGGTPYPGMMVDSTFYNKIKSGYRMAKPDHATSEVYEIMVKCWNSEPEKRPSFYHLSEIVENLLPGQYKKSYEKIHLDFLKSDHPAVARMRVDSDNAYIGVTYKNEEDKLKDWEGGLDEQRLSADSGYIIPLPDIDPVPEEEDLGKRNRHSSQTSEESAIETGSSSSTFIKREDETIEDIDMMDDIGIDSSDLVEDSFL

Row | IC50 (PDGFRalpha(V561D)) | IC50 (c-Kit(V654A)) | SMILES
1 | 48 nM | 11 nM | CC(=O)OC1CCN(C(=O)c2ccc(-n3cc(-c4cc5cc(F)ccc5[nH]c4=O)nn3)cc2)CC1 [A102, acetic acid 1-{4-[4-(6-fluoro-2-oxo-1,2-dihydro-quinolin-3-yl)-[1,2,3]triazol-1-yl]-benzoyl}-piperidin-4-yl ester]
2 | 570 nM | 63 nM | CN(C)[C@@H]1CCCN(C(=O)c2ccc(-n3cc(-c4cc5cc(F)ccc5[nH]c4=O)nn3)cc2)C1 [A331, 3-{1-[4-((R)-3-dimethylamino-piperidine-1-carbonyl)-phenyl]-1H-[1,2,3]triazol-4-yl}-6-fluoro-1H-quinolin-2-one]
3 | 200 nM | 230 nM | CO[C@H]1CCCN(C(=O)c2ccc(-n3cc(-c4cc5cc(F)c(F)cc5[nH]c4=O)nn3)cc2)C1 [A193, 6,7-difluoro-3-{1-[4-((S)-3-methoxy-piperidine-1-carbonyl)-phenyl]-1H-[1,2,3]triazol-4-yl}-1H-quinolin-2-one]
4 | 28 nM | 39 nM | CN1CCN(C(=O)c2ccc(-n3cc(-c4cc5cc(F)ccc5[nH]c4=O)nn3)cc2)CCC1=O [A110, 6-fluoro-3-{1-[4-(4-methyl-5-oxo-[1,4]diazepane-1-carbonyl)-phenyl]-1H-[1,2,3]triazol-4-yl}-1H-quinolin-2-one]
5 | 21 nM | 44 nM | COC[C@@H]1CCCN1C(=O)c1ccc(-n2cc(-c3cc4cc(Cl)ccc4[nH]c3=O)nn2)cc1 [A253, 6-chloro-3-{1-[4-((S)-2-methoxymethyl-pyrrolidine-1-carbonyl)-phenyl]-1H-[1,2,3]triazol-4-yl}-1H-quinolin-2-one]
6 | 8.4 nM | 57 nM | COCCO[C@H]1CCN(C(=O)c2ccc(-n3cc(-c4cc5cc(Cl)ccc5[nH]c4=O)nn3)cc2)C1 [A259, 6-chloro-3-(1-{4-[(S)-3-(2-methoxy-ethoxy)-pyrrolidine-1-carbonyl]-phenyl}-1H-[1,2,3]triazol-4-yl)-1H-quinolin-2-one]
7 | 13 nM | 36 nM | CO[C@@H]1C[C@H](CO)N(C(=O)c2ccc(-n3cc(-c4cc5cc(F)ccc5[nH]c4=O)nn3)cc2)C1 [A244, 6-fluoro-3-{1-[4-((2R,4R)-2-hydroxymethyl-4-methoxy-pyrrolidine-1-carbonyl)-phenyl]-1H-[1,2,3]triazol-4-yl}-1H-quinolin-2-one]
8 | 58 nM | 31 nM | CN1CC[C@H](Oc2ccc(-n3cc(-c4cc5cc(F)ccc5[nH]c4=O)nn3)cc2)C1 [A370, 6-fluoro-3-{1-[4-((S)-1-methyl-pyrrolidin-3-yloxy)-phenyl]-1H-[1,2,3]triazol-4-yl}-1H-quinolin-2-one]
9 | 330 nM | 26 nM | N[C@@H]1CCN(C(=O)c2ccc(-n3cc(-c4cc5cc(F)ccc5[nH]c4=O)nn3)cc2)C1 [A313, 3-{1-[4-((R)-3-amino-pyrrolidine-1-carbonyl)-phenyl]-1H-[1,2,3]triazol-4-yl}-6-fluoro-1H-quinolin-2-one hydrochloride]
10 | 240 nM | 45 nM | NC1CCN(C(=O)c2ccc(-n3cc(-c4cc5cc(F)ccc5[nH]c4=O)nn3)cc2)C1 (stereo in doubt) [A306, 3-{1-[4-((S)-3-amino-pyrrolidine-1-carbonyl)-phenyl]-1H-[1,2,3]triazol-4-yl}-6-fluoro-1H-quinolin-2-one]
11 | 160 nM | 39 nM | CCN(CC)[C@@H]1CCCN(C(=O)c2ccc(-n3cc(-c4cc5cc(F)ccc5[nH]c4=O)nn3)cc2)C1 [A338, 3-{1-[4-((R)-3-diethylamino-piperidine-1-carbonyl)-phenyl]-1H-[1,2,3]triazol-4-yl}-6-fluoro-1H-quinolin-2-one]
12 | 7.4 nM | 23 nM | O=C(c1ccc(-n2cc(-c3cc4cc(Cl)ccc4[nH]c3=O)nn2)cc1)N1CCC[C@H]1CO [A246, 6-chloro-3-{1-[4-((S)-2-hydroxymethyl-pyrrolidine-1-carbonyl)-phenyl]-1H-[1,2,3]triazol-4-yl}-1H-quinolin-2-one]
13 | 6 nM | 27 nM | CN1CCC(CNC(=O)c2ccc(-n3cc(-c4cc5cc(F)ccc5[nH]c4=O)nn3)cc2)CC1 [A22, 4-[4-(6-fluoro-2-oxo-1,2-dihydro-quinolin-3-yl)-[1,2,3]triazol-1-yl]-N-(1-methyl-piperidin-4-ylmethyl)-benzamide]

Further lines, the compound ahead of its results:

Row | SMILES | IC50 (PDGFRalpha(V561D)) | IC50 (c-Kit(V654A))
14 | CN(C)C[C@H]1CCCN1C(=O)c1ccc(-n2cc(-c3cc4cc(F)c(F)cc4[nH]c3=O)nn2)cc1 [A320, 3-{1-[4-((R)-2-dimethylaminomethyl-pyrrolidine-1-carbonyl)-phenyl]-1H-[1,2,3]triazol-4-yl}-6,7-difluoro-1H-quinolin-2-one] | 99 nM | 48 nM
15 | CN1CCN(CCOc2ccc(-n3cc(-c4cc5cc(F)ccc5[nH]c4=O)nn3)cc2)CC1 [A176, 6-fluoro-3-(1-{4-[2-(4-methyl-piperazin-1-yl)-ethoxy]-phenyl}-1H-[1,2,3]triazol-4-yl)-1H-quinolin-2-one] | 1.6 nM | 6.7 nM
16 | O=C(NC1CCNCC1)c1ccc(-n2cc(-c3cc4cccnc4[nH]c3=O)nn2)cc1 [A51, 4-[4-(2-oxo-1,2-dihydro-[1,8]naphthyridin-3-yl)-[1,2,3]triazol-1-yl]-N-piperidin-4-yl-benzamide] | 22 nM | 91 nM
17 | CN1CCN(CCOc2ccc(-n3cc(-c4cc5ccccc5[nH]c4=O)nn3)cc2)CC1 [A72, 3-(1-{4-[2-(4-methyl-piperazin-1-yl)-ethoxy]-phenyl}-1H-[1,2,3]triazol-4-yl)-1H-quinolin-2-one] | 4 nM | 11 nM
18 | O=C(c1ccc(-n2cc(-c3cc4c(F)c(F)ccc4[nH]c3=O)nn2)cc1)N1CCNCC1 [A127, 5,6-difluoro-3-{1-[4-(piperazine-1-carbonyl)-phenyl]-1H-[1,2,3]triazol-4-yl}-1H-quinolin-2-one] | 79 nM | 38 nM
19 | CN(C(=O)C1CCOCC1)c1ccc(-n2cc(-c3cc4cc(F)ccc4[nH]c3=O)nn2)cc1 [A345, tetrahydro-pyran-4-carboxylic acid {4-[4-(6-fluoro-2-oxo-1,2-dihydro-quinolin-3-yl)-[1,2,3]triazol-111]-phenyl}-methyl-amide] | 1500 nM | 12 nM
20 | CN(C)C(=O)c1ccc(-n2cc(-c3cc4cccnc4[nH]c3=O)nn2)cc1 [A3, N,N-dimethyl-4-[4-(2-oxo-1,2-dihydro-[1,8]naphthyridin-3-yl)-[1,2,3]triazol-1-yl]-benzamide] | 16 nM | 53 nM
21 | O=c1[nH]c2cc(F)c(F)cc2cc1-c1cn(-c2ccc(OCCN3CCNCC3)cc2)nn1 [A130, 6,7-difluoro-3-{1-[4-(2-piperazin-1-yl-ethoxy)-phenyl]-1H-[1,2,3]triazol-4-yl}-1H-quinolin-2-one] | 170 nM | 35 nM
22 | CN(C)C1CCN(C(=O)c2ccc(-n3cc(-c4cc5cc(F)c(F)cc5[nH]c4=O)nn3)cc2)CC1 [A171, 3-{1-[4-(4-dimethylamino-piperidine-1-carbonyl)-phenyl]-1H-[1,2,3]triazol-4-yl}-6,7-difluoro-1H-quinolin-2-one] | 190 nM | 17 nM
23 | O=C(c1cccc(-n2cc(-c3cc4cc(F)c(F)cc4[nH]c3=O)nn2)c1)N1CCC(N2CCCC2)C1 (stereo not drawn) [A108, 3-{1-[3-([1,3′]bipyrrolidinyl-1′-carbonyl)-phenyl]-1H-[1,2,3]triazol-4-yl}-6,7-difluoro-1H-quinolin-2-one] | 81 nM | 83 nM
24 | O=C(c1cccc(-n2cc(-c3cc4ccccc4[nH]c3=O)nn2)c1)N1CCOCC1 [A76, 3-{1-[3-(morpholine-4-carbonyl)-phenyl]-1H-[1,2,3]triazol-4-yl}-1H-quinolin-2-one] | 30 nM | 49 nM
25 | CO[C@@H]1CCN(C(=O)c2ccc(-n3cc(-c4cc5cc(F)c(F)cc5[nH]c4=O)nn3)cc2)C1 [A113, 6,7-difluoro-3-{1-[4-((R)-3-methoxy-pyrrolidine-1-carbonyl)-phenyl]-1H-[1,2,3]triazol-4-yl}-1H-quinolin-2-one] | 36 nM | 8.6 nM
26 | O=C(c1ccc(-n2cc(-c3cc4cccnc4[nH]c3=O)nn2)cc1)N1CCOCC1 [A47, 3-{1-[4-(morpholine-4-carbonyl)-phenyl]-1H-[1,2,3]triazol-4-yl}-1H-[1,8]naphthyridin-2-one] | 7 nM | 24 nM
27 | CN1CCN(C(=O)c2ccc(-n3cc(-c4cc5ccc(Cl)cc5[nH]c4=O)nn3)cc2)CC1 [A154, 7-chloro-3-{1-[4-(4-methyl-piperazine-1-carbonyl)-phenyl]-1H-[1,2,3]triazol-4-yl}-1H-quinolin-2-one] | 3 nM | 11 nM
28 | O=c1[nH]c2ccccc2cc1-c1cnn(-c2ccccc2)c1 [A75, 3-(1-phenyl-1H-pyrazol-4-yl)-1H-quinolin-2-one] | 18 nM | 48 nM
29 | O=C(c1ccc(-n2cc(-c3cc4cc(F)c(F)cc4[nH]c3=O)nn2)cc1)N1CCC(OCCN2CCOCC2)C1 (stereo not drawn) [A221, 6,7-difluoro-3-(1-{4-[3-(2-morpholin-4-yl-ethoxy)-pyrrolidine-1-carbonyl]-phenyl}-1H-[1,2,3]triazol-4-yl)-1H-quinolin-2-one] | 380 nM | 200 nM
30 | O=c1[nH]c2ccc(F)cc2cc1-c1cn(-c2ccc(S(=O)(=O)N3CCNCC3)cc2)nn1 [A129, 6-fluoro-3-{1-[4-(piperazine-1-sulfonyl)-phenyl]-1H-[1,2,3]triazol-4-yl}-1H-quinolin-2-one] | 48 nM | 13 nM
